From publication PMC10849753, “Antiproliferative activity of platinum(II) and copper(II) complexes containing novel biquinoxaline ligands” (Metallomics: Integrated Biometal Science, 2024)

Tests used:
Assay type in all cases: cell-based, human
LN229 cells = assay: MTT cell viability assay
Description: Cell culture growth conditions: Selected cancer cell lines from different origins, including human glioblastoma A172 (CRL-1620), LN229 (CRL-2611), U87 (HTB-14) cell lines, human cervix HeLa (ATCC, CCL-2), human breast MDA -231 (HTB-26), human prostate PC-3 (ATCC, CRL-1435), human lung A-549 (CCL-185), and non-cancer Chinese hamster ovary CHOK1 cell line (CCL61) (which was used as control) were purchased from American Type Culture Collection (ATCC, USA). These cultures were grown in Dulbecco's modified Eagle's medium-F12 (DMEM/F12, #D0547, Sigma-Aldrich) supplemented with 5% fetal bovine serum (#10500, Gibco) and 1% antibiotic-antimycotic (#15240, Gibco), and incubated at 37°C and 5% CO2. They were harvested and used for the following assays after reaching 70–80% confluency.
The used cell lines (A172, LN229, U87, HeLa, MDA-231, PC-3, A549, and CHO-K1) were harvested and seeded (6 × 10^3 cells/well) into the 96-well plates and incubated at 37°C and 5% CO2 for 24 h. After that, the synthesized Cu(II) and Pt(II) complexes, at a concentration range of 6.25 to 100 μM in DMEM-F12, were added to the cell monolayers and incubated at 37°C and 5% CO2 for 24, 48, and 72 h. The dose–response relationships of the synthesized complexes were determined by using an MTT colorimetric agent (3-[4,5-dimethylthiazol-2-yl]-2,5-diphenyltetrazolium bromide, #M5655, Sigma-Aldrich), which is reduced by the mitochondrial enzymes of the metabolically active live cells and converted into a purple formazan product. The MTT stock solution was later dissolved in a phosphate buffer solution (PBS, 5 mg/ml, w/v) and, then, 5 μg/ml of MTT in DMEM was added into each well and incubated at 37°C and 5% CO2 for 4 h. DMSO (#D 8418, Sigma-Aldrich), as a dissolving solution for formazan crystals, was added into each well and placed in a shaker for 2 h. The absorbance at a test wavelength of 570 nm and a reference wavelength of 630 nm was measured on a microplate reader.

HeLa cells [1] = assay: Apoptosis, TUNEL assay; details: 50 and 100 μM, 24 h
Description: (§1) The sensitive U87 and HeLa cell lines, selected according to the results of the IC50 values of the examined Cu(II) and Pt(II) complexes, were seeded at a seeding cell number of 5 × 10^4 cells on the 12 mm round cover slips placed in the 24-well plate and incubated at 37°C and 5% CO2 for 24 h. The following day, the Cu(dpq)Cl2, Cu(dtq)Cl2, Pt(dpq)Cl2 and Pt(dtq)Cl2 complexes were freshly prepared and added at a range of 50 and 100 μM to the cell monolayers. After a 24 h incubation time, the cell monolayers were fixed with 4% paraformaldehyde for 15 min at room temperature and, then, the terminal deoxynucleotidyl transferase (TdT)-mediated dUTP nick end labeling (TUNEL) method was applied to detect the DNA damage associated with apoptosis. A commercial assay kit, In Situ Cell Death Detection Kit (Roche, #11767291910), was used for this purpose in accordance to the manufacturer's instructions. The experiment was repeated twice with the tested cell lines, and images were recorded with using a Leica DMI 6000 fluorescence microscope with 40× magnification.

U87 cells [2] = assay: Apoptosis, TUNEL assay; details: U87, 50 and 100 μM, 24 h
Description: as §1

HeLa cells [3] = assay: Matrigel invasion analysis; details: 6.25 and 12.5 μM, 24 h, vs negative control
Description: The analysis was completed with U87 and HeLa cell lines to assess the metastatic potential of tumor cells using transwell inserts with an 8 μm pore size polycarbonate membrane (Corning Costar, Cambridge, MA, USA) coated with 1/5 of Matrigel (Beckton Dickinson, Bedford, MA, USA) and air-dried at room temperature. After seeding the U87 and HeLa cell lines (3 × 10^5cells/insert), the complex concentrations were selected as 6.25 or 12.5 μM and incubated at 37°C in a humidified incubator with 5% CO2 for 24 h. The cell monolayers in the transwell inserts were fixed with ice-cold methanol and stained with 0.05% crystal violet for the analysis. The invasion of the cells to the basolateral side of the inserts was investigated using a light microscope with 40× magnification.

[4] = tested on: lung A549, cervix HeLa, and breast MD-A231 cells; assay: ROS production, DCFDA assay; details: MDA-231, 6.25 to 100 μM, 24 h, vs negative control
Description: (§2) The reactive oxygen species (ROS) formation on the selected cell lines upon exposure to the synthesized Cu(II) and Pt(II) complexes was investigated using the oxidation-sensitive dye, 2ʹ,7ʹ-dichlorofluorescein diacetate (DCFDA, #D6883 Sigma-Aldrich). The cell lines (A172, LN229, U87, HeLa, MDA-231, PC-3, A549, and CHO-K1) were seeded (6 × 10^3 cells/well) into the 96-well plates and incubated at 37°C and 5% CO2 for 24 h. After that, the Cu(II) and Pt(II) complexes, at a concentration range of 6.25 to 100 μM, were added to the cell monolayers. Hydrogen peroxide (H2O2), at concentrations from 50 to 500 μM, was utilized as a positive control. The following day, 5 μM of DCFDA in PBS was added to the cell monolayers and, then, the plate was incubated for 30–45 min. Consequently, the fluorescence intensity was measured with 485 nm excitation and 535 nm emission wavelengths using a microplate reader. The fluorescence values of each treatment were normalized to the negative control, including only growth medium without any treatment. The assay was repeated in triplicate.

prostate PC3 cells = assay: ROS production, DCFDA assay; details: 6.25 to 100 μM, 24 h
Description: as §2

[5] = tested on: A172, LN229, U87, A549, Hela, PC-3, and MDA-231 cells; assay: ROS production, DCFDA assay, all used cell lines; details: all used cell lines; 6.25 to 100 μM, 24 h
Description: as §2

HeLa cells [6] = assay: In vitro comet assay; details: 25 and 50 μM, 24 h
Description: (§3) Commet assay was performed with U87 and HeLa cell lines (4 × 10^4 cells/well) to detect DNA damage in the individual eukaryotic cells, where 25 or 50 μM Cu(II) or Pt(II) complexes were added to the cells and incubated for 24 h. Subsequently, the comet assay was performed as described before.[31] The DNA damage was evaluated by calculating the DNA tail percentage using the following equation: DNA tail % = 100× tailing DNA density/cell DNA density. The assay was repeated twice, and 50 individual cells were involved for each treatment.

U87 cells [7] = assay: In vitro comet assay; details: U87, 25 and 50 μM, 24 h
Description: as §3

| SMILES | IC50 (LN229 cells; LN229, 24 h exposure) | IC50 (LN229 cells; LN229, 48 h exposure) | IC50 (LN229 cells; LN229, 72 h exposure) | apoptosis (DNA fragmentation, TUNEL) (HeLa cells [1]) | apoptosis (DNA fragmentation, TUNEL) (U87 cells [2]) | anti-invasive effect (HeLa cells [3]) | increase of ROS production [4] | ROS formation (prostate PC3 cells) | ROS formation [5] | genotoxicity (DNA damage, comet) (HeLa cells [6]) | genotoxicity (DNA damage, comet) (U87 cells [7]) |
| --- | --- | --- | --- | --- | --- | --- | --- | --- | --- | --- | --- |
| [Cl][Cu][Cl].c1ccc(-c2nc3ccc(-c4ccc5nc(-c6ccccn6)c(-c6ccccn6)nc5c4)cc3nc2-c2ccccn2)nc1 [Cu(tpbq)Cl2] | > 100 µM | > 100 µM | > 100 µM | none of which induced any apoptosis | none of which induced any apoptosis | did not have any anti-invasive effect |  |  |  |  |  |
| [Cl][Cu][Cl].c1csc(-c2nc3ccc(-c4ccc5nc(-c6cccs6)c(-c6cccs6)nc5c4)cc3nc2-c2cccs2)c1 [Cu(ttbq)Cl2] | 42 ± 14 µM | 36 ± 6.38 µM | 54 ± 3.1 µM | none of which induced any apoptosis | apoptotic potential of the U87 cells was observed | high anti-invasive effects | ~2 fold | no formation | highest increase in the level of ROS formation | only genotoxic on the Hela cells at a high concentration (50 μM) | caused DNA damage on the U87 cells at both concentrations |
| [Cl][Pt][Cl].c1ccc(-c2nc3ccc(-c4ccc5nc(-c6ccccn6)c(-c6ccccn6)nc5c4)cc3nc2-c2ccccn2)nc1 [Pt(tpbq)Cl2] | > 100 µM | 91.9 ± 49 µM | 83.9 ± 3.16 µM | none of which induced any apoptosis | apoptotic potential of the U87 cells was observed | high anti-invasive effects |  |  | did not induce any ROS formation |  |  |
| [Cl][Pt][Cl].c1csc(-c2nc3ccc(-c4ccc5nc(-c6cccs6)c(-c6cccs6)nc5c4)cc3nc2-c2cccs2)c1 [Pt(ttbq)Cl2] | 67.9 ± 16.3 µM | 44.8 ± 11.6 µM | 38.8 ± 1.46 µM | apoptosis on HeLa cells was only observed | none of which induced any apoptosis | higher potency to prevent the invasion | ~2 fold | no formation |  |  | caused DNA damage on the U87 cells at both concentrations |
